Experimental data published in patent US7525011B2, “Transgenic cancer models in fish” (Dana-Farber Cancer Institute, priority 2002, dated 2009).

Tests used:
zebrafish embryos = assay: 96-well plate embryo survival assay; type: in vivo; conditions: 1% DMSO in egg water, 5- to 8-day old embryos
Protocol: Next it was determined if 5- to 8-day old zebrafish embryos are able to survive in 96 well plates, and what […] of water was necessary to attain high levels of survival. Six-day old zebrafish embryos were allocated to wells in a 96 well plate. Three to four embryos were grown in 250, 150, and 100 μl of egg water with and without 1% DMSO and analyzed daily for mortality.

MYC-ER = conditions: in the presence of tamoxifen; by 300 days of development; CD2-MYC-ER mouse models; cited from earlier work

Compound | effect on embryo survival (zebrafish embryos) | offspring developing tumors (MYC-ER) [%]
C[S+](C)[O-] [DMSO] | no significant effect | –
CC/C(=C(\c1ccccc1)c1ccc(OCCN(C)C)cc1)c1ccccc1 [tamoxifen] | – | 62
